The source of these data is patent publication US20240217951A1, “PCSK9 INHIBITORS AND METHODS OF USE THEREOF” (AstraZeneca AB, priority 2022, published 2024).

One may read the IC50 as the concentration that inhibits the measured activity by half.

For assay [1], the target named is T1, potassium ion channel hERG (human Ether-á-go-go-Related Gene) (Homo sapiens, UniProt Q12809).
T1 construct: expressed in transfected cells; host or cells: Chinese hamster ovary K1 (CHO)
The assay can be described thus: Assay 5 - hERG assay (SyncroPatch 384PE patch clamp, CHO cells). The format is cell-based. The following applies: geometric mean; CHO cells over-expressing hERG; read-out: Assay 5 (hERG Hu CHO IF EPh CR-Syncro) GMean IC50. The method, then: Assay 5—hERG Assay (Human Ether-á-go-go-Related Gene)
This assay (human Ether-á-go-go-Related Gene) measures activity of the compounds at the potassium ion channel hERG (human Ether-á-go-go-Related Gene).
Experiments were performed on the SyncroPatch 384PE high throughput patch clamp platform at room temperature and medium resistance chips with 4 patch holes per site. Chinese hamster ovary K1 (CHO) cell lines over-expressing the ion channel of choice (hERG) were used in assay-ready format and kept in liquid nitrogen or were used from live culture. Cells were either thawed and diluted in HBSS or were detached from flasks and resuspended in HBSS. HBSS comprised 140 mM NaCl, 4 mM KCl, 10 mM HEPES and 5 mM Glucose (pH7.4). The internal patch clamp solution was KF 120 mM, KCl 20 mM, HEPES 10 mM, EGTA 10 mM, and 25 PM Escin (pH 7.2). After the sealing process was complete, the external solution was exchanged for external patch clamp solution comprising NaCl 80 mM, KCl 4 mM, HEPES 10 mM, CaCl2 2 mM, MgCl2 1 mM, glucose 5 mM, and NMDG 60 mM (pH 7.4). All solutions were stored at room temperature, except Escin, which was stored at 4° C. All test compounds were dispensed in greiner-bio 384 well plates and tested in a 6 point cumulative assay (final DMSO concentration 0.33%). Only wells that passed previously agreed acceptance criteria for this platform were used in this analysis (30 MegaOhm seal resistance, Z prime >0.4 and current size >0.2 nA).
On the technique in general: hERG is a cardiac potassium channel; its block is linked to QT prolongation.

In assay [2] the target is GSK3β (Glycogen synthase kinase-3 beta) (Homo sapiens, UniProt P49841). In words: Assay 6 - GSK3β assay (ThermoFisher Z-Lyte). The format is biochemical. The following applies: geometric mean; ATP Conc: 10 μM; read-out: Assay 6 (GSK3β FRET-Z-Lyte CR) GMean IC50 (μM) ATP Conc: 10. The method, then: Assay 6—GSK3β Assay (ThermoFisher Assay)
Sequence of GSK3β (Glycogen synthase kinase-3 beta) (P49841 whole entry): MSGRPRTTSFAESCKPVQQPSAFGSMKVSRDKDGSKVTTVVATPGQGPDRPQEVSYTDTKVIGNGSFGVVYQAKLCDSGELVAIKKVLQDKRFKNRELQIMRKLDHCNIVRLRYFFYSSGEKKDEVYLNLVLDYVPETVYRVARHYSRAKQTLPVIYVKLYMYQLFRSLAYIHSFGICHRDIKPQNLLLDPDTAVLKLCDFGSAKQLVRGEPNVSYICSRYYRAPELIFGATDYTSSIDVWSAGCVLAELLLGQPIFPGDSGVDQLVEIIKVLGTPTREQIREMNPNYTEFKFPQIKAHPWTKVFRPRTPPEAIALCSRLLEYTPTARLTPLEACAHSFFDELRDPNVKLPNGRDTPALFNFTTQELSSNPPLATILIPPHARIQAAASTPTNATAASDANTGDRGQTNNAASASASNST
This assay measures the activity of the compounds at GSK3β (Glycogen synthase kinase-3 beta).
The test compounds were screened in 1% DMSO (final) in the well. For 10 point titrations, 3-fold serial dilutions are conducted from the starting concentration of 10 μM.
Bar-coded Corning, low volume NBS, black 384-well plate • 1. 2.5 μL—4× Test Compound or 100 nL 100× plus 2.4 μL kinase buffer • 2. 5 μL—2× Peptide/Kinase Mixture • 3. 2.5 μL—4×ATP Solution • 4. 30-second plate shake • 5. 60-minute Kinase Reaction incubation at room temperature • 6. 5 μL—Development Reagent Solution • 7. 30-second plate shake • 8. 60-minute Development Reaction incubation at room temperature • 9. Read on fluorescence plate reader and analyse the data
In step 2, the 2×GSK3β (GSK3 beta)/Ser/Thr (Glycogen synthase kinase-3 beta/Serine/Threonine) 09 mixture is prepared in 50 mM HEPES (4-(2-hydroxyethyl)-1-piperazineethanesulfonic acid) pH 7.5, 0.01% BRIJ-35, 10 mM MgCl2, 1 mM EGTA (egtazic acid). The final 10 μL Kinase Reaction consists of 0.22-0.92 ng GSK3β (GSK3 beta) and 2 μM Ser/Thr 09 in 50 mM HEPES pH 7.5, 0.01% BRIJ-35, 10 mM MgCl2, 1 mM EGTA.
In step 3 the ATP Solution is diluted to a 4× working concentration in Kinase Buffer (50 mM HEPES pH 7.5, 0.01% BRIJ-35, 10 mM MgCl2, 1 mM EGTA).
In Step 6 the Development Reagent is diluted 1:512 in Development Buffer (10× Novel PKC Lipid Mix: 2 mg/mL Phosphatidyl Serine, 0.2 mg/mL DAG in 20 mM HEPES, pH 7.4, 0.3% CHAPS).
SelectScreen® Kinase Profiling Service uses XLfit from IDBS. The dose response curve is curve fit to model number 205 (sigmoidal dose-response model).

In another assay the target is PCSK9 (Homo sapiens, UniProt Q8NBP7, G670E/V474I). In words: biochemical.
Sequence of PCSK9 (Q8NBP7 with tags, fused parts or gaps V474I/G670E): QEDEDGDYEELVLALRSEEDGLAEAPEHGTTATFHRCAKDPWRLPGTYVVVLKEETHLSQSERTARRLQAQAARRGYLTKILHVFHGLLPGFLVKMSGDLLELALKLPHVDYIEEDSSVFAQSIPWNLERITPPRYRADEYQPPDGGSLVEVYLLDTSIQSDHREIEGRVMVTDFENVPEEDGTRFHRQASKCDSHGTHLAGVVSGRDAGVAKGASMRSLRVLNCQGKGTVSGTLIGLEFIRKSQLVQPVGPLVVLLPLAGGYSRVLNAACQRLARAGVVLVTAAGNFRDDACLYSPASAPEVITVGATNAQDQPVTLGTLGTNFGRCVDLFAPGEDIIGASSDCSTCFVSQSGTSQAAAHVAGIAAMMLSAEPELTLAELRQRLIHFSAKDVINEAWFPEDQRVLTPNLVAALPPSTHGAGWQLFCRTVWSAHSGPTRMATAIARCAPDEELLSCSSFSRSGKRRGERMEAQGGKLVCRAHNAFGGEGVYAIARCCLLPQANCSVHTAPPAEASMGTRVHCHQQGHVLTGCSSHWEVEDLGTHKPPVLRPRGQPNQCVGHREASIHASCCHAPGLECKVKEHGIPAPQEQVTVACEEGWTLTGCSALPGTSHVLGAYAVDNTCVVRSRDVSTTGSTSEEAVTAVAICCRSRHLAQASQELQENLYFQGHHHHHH

T1 sequence (Q12809 whole entry): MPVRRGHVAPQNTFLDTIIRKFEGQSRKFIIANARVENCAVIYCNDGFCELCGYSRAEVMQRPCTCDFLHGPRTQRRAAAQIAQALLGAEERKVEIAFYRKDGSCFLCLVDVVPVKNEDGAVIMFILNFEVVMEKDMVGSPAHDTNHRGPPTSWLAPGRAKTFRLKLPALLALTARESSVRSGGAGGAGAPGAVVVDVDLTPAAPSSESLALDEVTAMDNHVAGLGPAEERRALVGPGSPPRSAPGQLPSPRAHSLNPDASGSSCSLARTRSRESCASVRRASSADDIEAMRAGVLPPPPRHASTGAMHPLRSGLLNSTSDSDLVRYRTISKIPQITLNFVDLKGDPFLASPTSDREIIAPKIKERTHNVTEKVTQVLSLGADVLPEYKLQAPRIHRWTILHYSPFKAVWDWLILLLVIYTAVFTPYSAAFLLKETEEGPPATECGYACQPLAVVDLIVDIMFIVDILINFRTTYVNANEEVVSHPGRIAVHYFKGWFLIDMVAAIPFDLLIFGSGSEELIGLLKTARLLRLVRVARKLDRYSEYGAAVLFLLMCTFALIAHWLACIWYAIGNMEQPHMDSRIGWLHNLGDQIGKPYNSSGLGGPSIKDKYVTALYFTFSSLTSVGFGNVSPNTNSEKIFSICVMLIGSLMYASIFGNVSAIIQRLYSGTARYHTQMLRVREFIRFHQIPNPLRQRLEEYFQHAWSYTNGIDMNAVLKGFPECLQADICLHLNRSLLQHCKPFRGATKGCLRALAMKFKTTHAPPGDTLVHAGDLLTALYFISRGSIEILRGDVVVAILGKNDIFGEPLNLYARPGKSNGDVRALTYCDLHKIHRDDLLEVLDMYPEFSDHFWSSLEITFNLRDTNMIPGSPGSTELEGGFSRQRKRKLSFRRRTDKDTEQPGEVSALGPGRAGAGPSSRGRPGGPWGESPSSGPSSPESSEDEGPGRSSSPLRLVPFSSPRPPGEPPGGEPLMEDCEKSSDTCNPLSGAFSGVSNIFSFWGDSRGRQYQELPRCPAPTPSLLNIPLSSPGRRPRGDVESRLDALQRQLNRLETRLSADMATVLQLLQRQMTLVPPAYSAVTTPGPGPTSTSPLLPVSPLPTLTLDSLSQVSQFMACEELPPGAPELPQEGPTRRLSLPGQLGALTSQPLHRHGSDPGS

Turning to `O=C1[C@@H]2OCC[C@@H]2CCN1c1ccc(N[C@H]2CC[C@H](Nc3cnc(OC(F)F)cn3)C2)nc1` [Example 78, (3aS,7aR)-6-(6-(((1S,3S)-3-((5-(Difluoromethoxy)pyrazin-2-yl)amino)cyclopentyl)amino)pyridin-3-yl)hexahydrofuro[2,3-c]pyridin-7(4H)-one], the values for the IC50 (in assay [1]; in assay [2]; against PCSK9) were > 40 µM, > 10 µM and 1.63 µM, respectively.

For the compound `Cc1ncc(N[C@H]2CC[C@H](Nc3ccc(-n4cc(C#N)ccc4=O)cn3)C2)nc1C` [Example 48, 6′-(((1S,3S)-3-((5,6-Dimethylpyrazin-2-yl)amino)cyclopentyl)amino)-2-oxo-2H-[1,3′-bipyridine]-5-carbonitrile], the values for the IC50 (in assay [1]; in assay [2]; against PCSK9) were 18.4 µM, > 10 µM and 0.113 µM, respectively.

On to `Cc1cnc(N[C@H]2CC[C@H](Nc3ccc(-n4nccc(OC(F)F)c4=O)cn3)C2)cn1` [Example 282, 4-(Difluoromethoxy)-2-(6-(((1S,3S)-3-((5-methylpyrazin-2-yl)amino)cyclopentyl)amino)pyridin-3-yl)pyridazin-3 (2H)-one], for which the IC50 in assay [1] is > 40.1 µM; in assay [2], > 10 µM; on PCSK9 it was 0.01 µM.

`Cn1ccc2nc(N[C@H]3CC[C@H](Nc4ccc(-n5ccccc5=O)cn4)C3)cnc21` [Example 7, 6′-(((1S,3S)-3-((5-Methyl-5H-pyrrolo[2,3-b]pyrazin-2-yl)amino)cyclopentyl)amino)-2H-[1,3′-bipyridin]-2-one]: the IC50 was > 40 µM in assay [1], > 10 µM in assay [2] and 3.5 µM on PCSK9.

Turning to `Cc1cnc(N[C@H]2CC[C@H](Nc3ccc(-n4nccc(C)c4=O)cn3)C2)cn1` [Example 227, 4-Methyl-2-(6-(((1S,3S)-3-((5-methylpyrazin-2-yl)amino)cyclopentyl)amino)pyridin-3-yl)pyridazin-3 (2H)-one], the IC50 in assay [1] was > 40.1 µM; in assay [2], > 10 µM; on PCSK9, 0.012 µM.

For the compound `COc1ccc(=O)n(-c2ccc(N[C@H]3CC[C@H](Nc4cnc(OC(F)F)cn4)C3)nc2)c1` [Example 95, 6′-(((1S,3S)-3-((5-(Difluoromethoxy)pyrazin-2-yl)amino)cyclopentyl)amino)-5-methoxy-2H-[1,3′-bipyridin]-2-one], the IC50 in assay [1] came to 11.1 µM; in assay [2] it was 0.115 µM; at PCSK9, 0.114 µM.

As to `CNC(=O)c1cnc(N[C@H]2CC[C@H](Nc3ccc(-n4cccc(Cl)c4=O)cn3)C2)cn1` [Example 149, 5-(((1S,3S)-3-((3-Chloro-2-oxo-2H-[1,3′-bipyridin]-6′-yl)amino)cyclopentyl)amino)-N-methylpyrazine-2-carboxamide], the IC50 in assay [1] was > 40.1 µM; in assay [2], > 10 µM; at PCSK9, 3.96 µM.

`Cc1cnc(N[C@H]2CC[C@H](Nc3ccc(-n4cccc(-c5cnn(C)c5)c4=O)cn3)C2)cn1` [Example 203, 3-(1-Methyl-1H-pyrazol-4-yl)-6′-(((1S,3S)-3-((5-methylpyrazin-2-yl)amino)cyclopentyl)amino)-2H-[1,3′-bipyridin]-2-one]: the IC50 in assay [1] was > 40.1 µM; in assay [2], > 10 µM.

Turning to `O=c1cccnn1-c1ccc(N[C@H]2CC[C@H](Nc3cnc(Cl)cn3)C2)nc1` [Example 25, 2-(6-(((1S,3S)-3-((5-Chloropyrazin-2-yl)amino)cyclopentyl)amino)pyridin-3-yl)pyridazin-3 (2H)-one], the IC50 is > 40 µM in assay [1], > 10 µM in assay [2] and 0.028 µM against PCSK9.

For `O=c1ccc(Cl)cn1-c1ccc(N[C@H]2CC[C@H](Nc3cnc(C4CC4)cn3)C2)nc1` [Example 109, 5-Chloro-6′-(((1S,3S)-3-((5-Cyclopropylpyrazin-2-yl)amino)cyclopentyl)amino)-2H-[1,3′-bipyridin]-2-one], the IC50 in assay [1] was 19.9 µM; in assay [2] it was > 10 µM; at PCSK9, 0.041 µM.

Regarding `Cc1cnc(N[C@H]2CC[C@H](Nc3ccc(N4C(=O)CN(C)C4=O)cn3)C2)cn1` [Example 41, 1-Methyl-3-(6-(((1S,3S)-3-((5-methylpyrazin-2-yl)amino)cyclopentyl)amino)pyridin-3-yl)imidazolidine-2,4-dione], the IC50 in assay [1] was > 40 µM; in assay [2], > 10 µM; against PCSK9 it was 0.057 µM.

For `COc1cccn(-c2ccc(N[C@H]3CC[C@H](Nc4cnc(C)cn4)C3)nc2)c1=O` (single isomer, unassigned) [Example 171], the results for the 50% inhibitory concentration (IC50) (in assay [1]; in assay [2]; against PCSK9) were > 40.1 µM, 2.1 µM and 0.602 µM, respectively.

On to `O=c1[nH]ccnc1N[C@H]1CC[C@H](Nc2ccc(-n3ccccc3=O)cn2)C1` [Example 252, 6′-(((1S,3S)-3-((3-Oxo-3,4-dihydropyrazin-2-yl)amino)cyclopentyl)amino)-2H-[1,3′-bipyridin]-2-one], for which the figures for the IC50 (in assay [1]; in assay [2]; against PCSK9) were > 40.1 µM, > 10 µM and 2.58 µM, respectively.

For the compound `O=c1ccc(Cl)cn1-c1ccc(N[C@H]2CC[C@H](Nc3cnc(OC(F)F)cn3)C2)nc1` [Example 83, 5-Chloro-6′-(((1S,3S)-3-((5-(difluoromethoxy)pyrazin-2-yl)amino)cyclopentyl)amino)-2H-[1,3′-bipyridin]-2-one], the IC50 in assay [1] was 5 µM; in assay [2], > 10 µM; at PCSK9, 0.044 µM.

On to `N#Cc1ccc(=O)n(-c2ccc(N[C@H]3CC[C@H](Nc4cnc(Cl)cn4)C3)nc2)c1` [Example 99, 6′-(((1S,3S)-3-((5-Chloropyrazin-2-yl)amino)cyclopentyl)amino)-2-oxo-2H-[1,3′-bipyridine]-5-carbonitrile], for which the IC50 in assay [1] is 19.9 µM; in assay [2], > 10 µM; on PCSK9, 0.04 µM.

For `CSc1cnc(N[C@H]2CC[C@H](Nc3ccc(-n4ccccc4=O)cn3)C2)cn1` [Example 162, 6′-(((1S,3S)-3-((5-(Methylthio)pyrazin-2-yl)amino)cyclopentyl)amino)-2H-[1,3′-bipyridin]-2-one], the IC50 in assay [1] is > 40.1 µM; in assay [2] it was > 10 µM; against PCSK9, 0.042 µM.

Take `CCSc1cnc(N[C@H]2CC[C@H](Nc3ccc(-n4ccccc4=O)cn3)C2)cn1` [Example 163, 6′-(((1S,3S)-3-((5-(Ethylthio)pyrazin-2-yl)amino)cyclopentyl)amino)-2H-[1,3′-bipyridin]-2-one]: the IC50 is 30.7 µM in assay [1], > 10 µM in assay [2] and 0.14 µM against PCSK9.

For the compound `COc1ccc(=O)n(-c2ccc(N[C@H]3CC[C@H](Nc4cnc(C5CC5)cn4)C3)nc2)c1` [Example 107, 6′-(((1S,3S)-3-((5-Cyclopropylpyrazin-2-yl)amino)cyclopentyl)amino)-5-methoxy-2H-[1,3′-bipyridin]-2-one], the IC50 in assay [2] worked out at 0.16 µM; at PCSK9, 0.105 µM.

As for `COc1ccc(=O)n(-c2ccc(N[C@H]3CC[C@H](Nc4cnc(Cl)cn4)C3)nc2)c1` [Example 28, 6′-(((1S,3S)-3-((5-Chloropyrazin-2-yl)amino)cyclopentyl)amino)-5-methoxy-2H-[1,3′-bipyridin]-2-one], the IC50 is 25 µM in assay [1], 0.16 µM in assay [2] and 0.043 µM against PCSK9.
